Assay results taken from patent publication US8765698B2, “Methods and products for reawakening retrocyclins” (priority 2010, dated 2014).

How the values were obtained:
HIV-1 BaL = assay: Luciferase-based infection assay to determine anti-HIV-1 activity; format: cell-based; conditions: for HIV-1 infection of aminoglycoside-treated TZM-bl cells: HIV-1 BaL, 24 hr, compared to untreated cells
Procedure: Treatments were then removed and the infection was quantified by measuring luciferase using Bright-Glo reagents (Promega, Madison, Wis.) in an LMax luminometer (Molecular Devices, Sunnyvale, Calif.). Cytotoxicity and metabolic activity of cells were verified by a tetrazolium-based MTT assay (R& D systems, Minneapolis, Minn.) performed on identically treated cells.
For antibody-mediated neutralization experiments, TZM-bl cells (4000 cells/well; 96 well plate) were cultured in D10^− medium and treated with vehicle (PBS) or 10 μg/ml of tobramycin for 24 hr. The next day, cells were treated with either rabbit preimmune or anti-retrocyclin serum diluted 1:10 in D10^− medium containing tobramycin or RC-100 (2.5 μg/ml). Two hours later the cells were infected with HIV-1 BaL (p24 of 5 ng/ml) at 37° C. for 24 hr. Viral infection was quantified as described above.

[1] = tested on: Cervicovaginal tissues (EpiVaginal); assay: MTT assay on organotypic cervicovaginal tissue; format: cell-based, human; conditions: one tissue, data not shown
Procedure: (§1) Cervicovaginal tissues were treated topically with 100 μl of PBS (control; n=4) or with 10 μg/ml of tobramycin (n=8) for 24 hr. Viability was assessed on control and tobramycin-treated tissue (n=1) using MTT assay kit (MatTek Corp., Ashland, Mass.). Cytotoxicity was measured by quantifying lactate dehydrogenase (LDH) activity in the underlying medium collected 24 hr after treatment with PBS or tobramycin by using CytoTox96 non-radioactive cytotoxicity assay kit (Promega Corp., Madison, Wis.).

retrocyclin peptides = assay: Immunostaining of aminoglycoside-treated TZM-bl cells with anti-retrocyclin antibody; format: cell-based; conditions: 10 μg/ml, 24 hr
From the text: The coverslips were then processed for immunofluorescence staining with anti-retrocyclin (rabbit anti-RC-101 antibody) or pre-immune serum as described above.

retrocyclin polypeptides = assay: Retrocyclin expression in cervicovaginal tissues, RP-HPLC, immuno-dotblot and immunostaining; format: cell-based, human
[2] = tested on: Cervicovaginal tissues (EpiVaginal); assay: LDH cytotoxicity assay on organotypic cervicovaginal tissue; format: cell-based, human; conditions: 10 μg/ml, 24 hr
Procedure: as §1

[3] = tested on: premature termination codon of retrocyclin cDNA; assay: Aminoglycoside mediated read-through of termination codon, luciferase fusion construct in HOS-CD4-CCR5 cells; format: cell-based, human; conditions: 10 μg/ml, 24 hr, luciferase normalized to renilla
Procedure: Wildtype and mutant retrocyclin cDNAs were subcloned into phCMV-luc-FSR vector to create unrescued RC-101 and rescued RC-101 C-terminal luciferase fusion constructs, and verified by sequencing. HOS-CD4-CCR5 cells were cultured in antibiotic free growth medium (D10^−) and co-transfected with 0.5 μg of unrescued or rescued (positive control) RC-101 plasmids along with 0.1 μg of phRL-CMV vector (transfection control containing renilla luciferase gene) using Effectene transfection reagent (Qiagen, Valencia, Calif.). The next day cells were treated for 24 hr with the appropriate aminoglycoside (40 μg/ml amikacin or 5 μg/ml gentamicin or 10 μg/ml tobramycin) or D10^− for control cells. Read-through was determined by measuring luciferase and renilla levels using a dual luciferase assay (Promega Corp., Madison, Wis.).

Compound	HIV-1 infection of aminoglycoside-treated TZM-bl cells (HIV-1 BaL)	infection, preimmune serum compared to anti-retrocyclin antibodies (HIV-1 BaL; TZM-bl cells, tobramycin 10 μg/ml for 24 hr, then serum, HIV-1)	metabolic activity of tissue (MTT assay) [1]	anti-retrocyclin immunostaining of TZM-bl cells (retrocyclin peptides)	amount of retrocyclin polypeptides expressed in treated cervicovaginal tissues (retrocyclin polypeptides; 10 μg/ml tobramycin, estimated by densitometry of immuno-dotblot)	anti-retrocyclin immunohistochemical staining of cervicovaginal tissue (retrocyclin polypeptides; applied apically, 24 hr)	tissue cytotoxicity (LDH activity in underlying medium) [2]	increase in read-through [3]
NC[C@H]1O[C@H](O[C@H]2[C@H](O)[C@@H](O[C@H]3O[C@H](CO)[C@@H](O)[C@H](N)[C@H]3O)[C@H](N)C[C@@H]2N)[C@H](N)C[C@@H]1O [tobramycin]	inhibited HIV-1 infection	modest yet significant reduction in infection	did not affect the metabolic activity adversely	brightly stained cells	approximately 1.6 μg/tissue	brightly stained cells	not cytotoxic	26 fold
gentamicin	inhibited HIV-1 infection							
